Assay results: PMC11864979, “First-in-class ultralong-target-residence-time p38α inhibitors as a mitosis-targeted therapy for colorectal cancer” (Nature Cancer, 2025)
Values joined by “and” are separate entries in the source; they are usually repeats but may differ in a detail not shown here. Identical values can stand only once. Like-named read-outs stand apart in the source and are kept apart here.

Tests used:
PDO6 = test: cell viability in patient-derived CRC organoids PDO6; type: cell-based, human
Procedure: (§1) For in vitro treatment studies, organoids were mechanically dissociated and digested using TrypLE supplemented with 100 µg ml^−1 DNaseI and 10.5 µM Y-27632 dihydrochloride (Invitrogen) at 37 °C. A total of 1,000–2,000 single cells were plated per well in white 96-well plates (Greiner) in culture medium containing 10% GFR Matrigel or Cultrex BME. The treatment with doxycycline (5 µg ml^−1), pharmacological inhibitors or corresponding volumes of DMSO was started 24 h after plating. Doxycycline was obtained from Sigma-Aldrich. […] Cell viability was measured by means of CellTiter-Glo 3D or CellTiter-Glo 2.0 reagent (Promega) according to the manufacturers’ instructions and the Infinite M Plex reader (Tecan, i-control version 3.9.1 software). Results were normalized to vehicle (DMSO) or to shNC. For cell-doubling assays, the cell number was quantified at the corresponding time points using Guava EasyCyte flow cytometer (Luminex, CytoSoft v5.2 software).

PDO7 = test: cell viability in patient-derived CRC organoids PDO7; type: cell-based, human
Procedure: as §1

PDO9 = test: cell viability in patient-derived CRC organoids PDO9; type: cell-based, human
Procedure: as §1

PDO12 = test: cell viability in patient-derived CRC organoids PDO12; type: cell-based, human
Procedure: as §1

PDO13 = test: cell viability in patient-derived CRC organoids PDO13; type: cell-based, human
Procedure: as §1

HCT-15 = test: cell viability in human CRC cell line HCT-15; type: cell-based; settings: for HCT-15 Cell viability (%): 4 d
Procedure: (§2) To generate KAP^2D cells, KAP organoids were isolated from Matrigel, fragmented by mechanical dissociation and plated without any extracellular matrix on common cell culture dishes. Phoenix-Eco packaging cells (CRL-3214), HCT-15 (CCL-225), HCT 116 (CCL-247), COLO 205 (CCL-222), LS 174T (CL-188), RKO (CRL-2577) and HT-29 (HTB-38) were obtained from the American Type Culture Collection. The cells were cultured at 37 °C and 7% CO2 with RPMI (KAP^2D cells) or DMEM (other cell lines), supplemented with 10% FBS and penicillin–streptomycin. KAP^2D cells were authenticated using PCR (Kras locus and Trp53 locus). Phoenix-Eco packaging cells and HCT-15, HCT 116, COLO 205, LS 174T, RKO and HT-29 cells were authenticated by the provider using short tandem repeat profiling. No commonly misidentified cell lines were used. Mycoplasma contamination was excluded by a PCR-based analysis.
as §1

RKO = test: cell viability in human CRC cell line RKO; type: cell-based; settings: ED Fig. 9g, replicates; for viability at 0.0137 µM: read-out: RKO Cell viability (%), 0.0137 µM; for viability at 0.0412 µM: read-out: RKO Cell viability (%), 0.0412 µM; for viability at 0.1235 µM: read-out: RKO Cell viability (%), 0.1235 µM; for viability at 0.3704 µM: read-out: RKO Cell viability (%), 0.3704 µM; for viability at 3.3333 µM: read-out: RKO Cell viability (%), 3.3333 µM; for viability at 10 µM: read-out: RKO Cell viability (%), 10.0000 µM
Procedure: as §2, §1

KAP^2D cells [1] = test: P-H3^S10 / α-tubulin staining, mitotic phases in KAP^2D cells; type: cell-based, mouse; settings: replicates, experiment and repetition
Procedure: Immunofluorescence staining on cells and organoids was performed on glass coverslips or tissue culture chambers (Sarstedt). Organoids were plated in medium containing 10% Matrigel or Cultrex BME. The cultures were fixed with 4% paraformaldehyde and stained with specific antibodies and DAPI (Vector Labs). All used antibodies and dilutions are listed in the Nature Portfolio Reporting Summary. For analyzing DNA synthesis, the Molecular Probes Click-iT EdU Alexa Fluor 555 kit was used 24 h after EdU incorporation with DAPI counterstaining. SA-β-Gal staining of cells was performed in cell culture dishes (cells) or tissue culture chambers (organoids) after fixation with 0.5% glutaraldehyde as described above. Human cultures were incubated with X-Gal solution at pH 6.0 for ~4 h. […] Positive cells were quantified using ImageJ version 1.53a software. The analysis of mitosis was performed with an LSM800 Airyscan (Zeiss) microscope (ZEN version 3.0 software). An Airyscan autofilter processing was applied before image analysis.

KAP^2D cells [2] = test: annexin V apoptosis analysis in KAP^2D cells; type: cell-based, mouse; settings: Fig. 5a
Procedure: Apoptosis was analyzed with the FITC annexin V apoptosis detection kit (Biolegend). Both measurements were performed with FACS Canto II (BD) and physical parameters were used to exclude cell debris and cell doublets.

KAP liver metastasis = test: survival of wild-type mice with KAP liver metastasis; type: in vivo, mouse; settings: single animals; 1 = event, 0 = censored; Fig. 6e
Procedure: Subcutaneous injection, splenic seeding or cecum injection of organoids was performed in 8–10-week-old C57BL/6 N/Crl, Rag2^−/− (B6.Cg-Rag2^tm1.1Cgn/J), or CB17 Scid beige (CB17.Cg-Prkdc^scidLyst^bg-J/Crl) mice, obtained from Charles River. The organoids were dissociated into single cells, washed with PBS and injected in a 1:1 mixture of PBS and Matrigel. For murine organoids, 1 × 10^5 cells were injected into the left and right flanks or the spleen capsule and 2 × 10^6 cells were injected into the cecum wall. For human organoids, 4 × 10^5 cells were injected into the flanks of CB17 Scid beige mice. For splenic seeding and cecum injection, mice were anaesthetized using ketamine (100 mg kg^−1, intraperitoneally) and xylazin (10 mg/kg, intraperitoneally) in NaCl and a small laparotomy below the thorax was performed.
No mice were excluded during treatment studies.

[3] = Homo sapiens, RKO, first experiment

O=C1c2ccc(Nc3ccc(F)cc3F)cc2CCc2ccc(OC[C@H](O)CO)cc21 [SKL, skepinone-L, reference compound]
viability at 1 µM (PDO6; Homo sapiens, 96 h, read-out: Cell viability (%), PDO6, 1 µM, 4 days): 112% | Cell viability (%) (PDO6; PDO6, 0.5 µM, 4 d, 0.5 µM): 101.15% and 118.77% and 80.46% | Cell viability (%) (PDO6; PDO6, 1 µM, 4 days, 1 µM): 110.32% and 93.07% | viability at 0.5 µM (PDO7; Homo sapiens, 96 h, read-out: Cell viability (%), PDO7, 0.5 µM, 4 d): 82.8% | viability at 1 µM (PDO7; Homo sapiens, 96 h, read-out: Cell viability (%), PDO7, 1 µM, 4 days): 96.8% | Cell viability (%) (PDO7; PDO7, 0.5 µM, 4 d, 0.5 µM): 101.04% and 90.15% | Cell viability (%) (PDO7; PDO7, 1 µM, 4 days, 1 µM): 99.67% and 101.17% | viability at 0.5 µM (PDO9; Homo sapiens, 96 h, read-out: Cell viability (%), PDO9, 0.5 µM, 4 d): 92% | Cell viability (%) (PDO9; PDO9, 0.5 µM, 4 d, 0.5 µM): 97.83% and 101.86% | Cell viability (%) (PDO9; PDO9, 1 µM, 4 days, 1 µM): 97.80% and 79.73% and 102.56% | viability at 0.5 µM (PDO12; Homo sapiens, 96 h, read-out: Cell viability (%), PDO12, 0.5 µM, 4 d): 102% | Cell viability (%) (PDO12; PDO12, 0.5 µM, 4 d, 0.5 µM): 113.70% and 97.26% | Cell viability (%) (PDO12; PDO12, 1 µM, 4 days, 1 µM): 108.38% and 136.33% and 112.98% | viability at 0.5 µM (PDO13; Homo sapiens, 96 h, read-out: Cell viability (%), PDO13, 0.5 µM, 4 d): 90.8% | viability at 1 µM (PDO13; Homo sapiens, 96 h, read-out: Cell viability (%), PDO13, 1 µM, 4 days): 85.6% | Cell viability (%) (PDO13; PDO13, 0.5 µM, 4 d, 0.5 µM): 102.60% and 92.37% | Cell viability (%) (PDO13; PDO13, 1 µM, 4 days, 1 µM): 87.89% and 85.59% | HCT-15 Cell viability (%) (HCT-15; 0.0137 µM): 94.63% and 95.15% and 88.92% and 87.12% and 85.20% | HCT-15 Cell viability (%) (HCT-15; 0.0412 µM): 84.33% and 79.97% and 95.82% and 93.07% and 94.19% | HCT-15 Cell viability (%) (HCT-15; 0.1235 µM): 87.23% and 83.60% and 94.86% and 91.54% and 91.68% | HCT-15 Cell viability (%) (HCT-15; 0.3704 µM): 89.64% and 87.65% and 88.79% and 84.50% and 86.12% | HCT-15 Cell viability (%) (HCT-15; 1.1111 µM): 86.80% and 87.17% and 87.53% and 83.96% and 84.00% | HCT-15 Cell viability (%) (HCT-15; 3.3333 µM): 78.50% and 80.56% and 79.62% and 74.15% and 75.97% | HCT-15 Cell viability (%) (HCT-15; 10.0000 µM): 48.74% and 48.84% and 48.80% and 46.08% and 47.66% | viability at 0.0137 µM (HCT-15; Homo sapiens, HCT-15, 96 h, read-out: HCT-15 Cell viability (%), 0.0137 µM, 4 d): 96.7% | viability at 0.0412 µM (HCT-15; Homo sapiens, HCT-15, 96 h, read-out: HCT-15 Cell viability (%), 0.0412 µM, 4 d): 83.9% | viability at 0.1235 µM (HCT-15; Homo sapiens, HCT-15, 96 h, read-out: HCT-15 Cell viability (%), 0.1235 µM, 4 d): 87.5% | viability at 0.3704 µM (HCT-15; Homo sapiens, HCT-15, 96 h, read-out: HCT-15 Cell viability (%), 0.3704 µM, 4 d): 93.1% | viability at 1.1111 µM (HCT-15; Homo sapiens, HCT-15, 96 h, read-out: HCT-15 Cell viability (%), 1.1111 µM, 4 d): 93.5% | viability at 3.3333 µM (HCT-15; Homo sapiens, HCT-15, 96 h, read-out: HCT-15 Cell viability (%), 3.3333 µM, 4 d): 76.4% | viability at 10 µM (HCT-15; Homo sapiens, HCT-15, 96 h, read-out: HCT-15 Cell viability (%), 10.0000 µM, 4 d): 49.5% | RKO Cell viability (%) (RKO; 0.0137 µM, Repetition): 119.75% and 114.04% | RKO Cell viability (%) (RKO; 0.0137 µM, first experiment): 97.01% and 95.97% | RKO Cell viability (%) (RKO; 0.0412 µM, Repetition): 110.50% and 104.43% | RKO Cell viability (%) (RKO; 0.0412 µM, first experiment): 90.38% and 90.15% | RKO Cell viability (%) (RKO; 0.1235 µM, Repetition): 96.29% | RKO Cell viability (%) (RKO; 0.1235 µM, first experiment): 96.41% and 82.79% | RKO Cell viability (%) (RKO; 0.3704 µM, Repetition): 112.94% and 109.02% | RKO Cell viability (%) (RKO; 0.3704 µM, first experiment): 79.06% and 75.48% | RKO Cell viability (%) (RKO; 1.1111 µM, Repetition): 92.46% and 113.42% and 111.27% | RKO Cell viability (%) (RKO; 1.1111 µM, first experiment): 98.68% and 92.88% | RKO Cell viability (%) (RKO; 3.3333 µM, Repetition): 97.71% and 103.33% | RKO Cell viability (%) (RKO; 3.3333 µM, first experiment): 90.21% and 92.19% | RKO Cell viability (%) (RKO; 10.0000 µM, Repetition): 100.51% and 98.00% | RKO Cell viability (%) (RKO; 10.0000 µM, first experiment): 77.92% and 73.23% | viability at 0.0137 µM (RKO; Homo sapiens, RKO, Repetition): 123% | viability at 0.0137 µM (RKO; [3]): 103% | viability at 0.0412 µM (RKO; Homo sapiens, RKO, Repetition): 107% | viability at 0.0412 µM (RKO; [3]): 102% | viability at 0.1235 µM (RKO; Homo sapiens, RKO, Repetition): 114% | viability at 0.1235 µM (RKO; [3]): 91.2% | viability at 0.3704 µM (RKO; Homo sapiens, RKO, Repetition): 108% | viability at 0.3704 µM (RKO; [3]): 82.8% | viability at 1.1111 µM (RKO; Homo sapiens, RKO, read-out: RKO Cell viability (%), 1.1111 µM, first experiment): 99.3% | viability at 3.3333 µM (RKO; Homo sapiens, RKO, Repetition): 96.8% | viability at 3.3333 µM (RKO; [3]): 96.5% | viability at 10 µM (RKO; Homo sapiens, RKO, Repetition): 92% | viability at 10 µM (RKO; [3]): 71.1% | Anaphase, % (of fully P-H3S10+ cells) (KAP^2D cells [1]; Fig. 4f): 10.84% and 8.57% and 15.15% and 12.31% and 9.21% and 11.59% | Metaphase, % (of fully P-H3S10+ cells) (KAP^2D cells [1]; Fig. 4f): 25.30% and 20.00% and 30.30% and 29.23% and 25.00% and 27.54% | Multipolar mitosis, % (of fully P-H3S10+ cells) (KAP^2D cells [1]; Fig. 4f): 3.61% and 2.86% and 6.06% and 3.08% and 3.95% and 8.70% | Telophase, % (of fully P-H3S10+ cells) (KAP^2D cells [1]; Fig. 4f): 8.43% and 9.52% and 12.12% and 10.77% and 13.16% and 15.94% | P-H3S10+ cells, fully positive (KAP^2D cells [1]; Fig. 4d): 4.75% and 6.25% and 2.15% and 4.12% and 5.03% and 3.69% | P-H3S10+ cells, partially positive (KAP^2D cells [1]; Fig. 4d): 6.47% and 7.85% and 5.54% and 6.84% and 8.15% | Annexin V+ cells (KAP^2D cells [2]; 1 d of treatment): 5.21% and 5.26% and 4.63% and 7.96% and 7.76% and 8.93% | Annexin V+ cells (KAP^2D cells [2]; 2 d of treatment): 9.26% and 10.60% and 6.13% and 6.98% and 6.69% and 8.97% | Annexin V+ cells (KAP^2D cells [2]; 3 d of treatment): 12.30% and 9.65% and 9.21% and 7.99% and 8.10% | Annexin V+ cells (KAP^2D cells [2]; 4 d of treatment): 14.90% and 13.30% and 12.30% and 11.90% and 13.00% and 16.60% | Survival (KAP liver metastasis): 15 d of treatment and 16 d of treatment and 18 d of treatment and 26 d of treatment and 28 d of treatment and 11 d of treatment
